Data: US7205309B2, “Quinazoline derivatives” (Hoffmann-La Roche Inc., priority 2002, dated 2007)

Biological target: T1, recombinant mouse NPY5-receptor (mNPY5) (Mus musculus, UniProt O70342)
T1 construct: The full-length cDNA encoding the mouse NPY5 (mNPY5) receptor was amplified from mouse brain cDNA; expressed in transfected cells; membranes used
T1 sequence (O70342 1-466): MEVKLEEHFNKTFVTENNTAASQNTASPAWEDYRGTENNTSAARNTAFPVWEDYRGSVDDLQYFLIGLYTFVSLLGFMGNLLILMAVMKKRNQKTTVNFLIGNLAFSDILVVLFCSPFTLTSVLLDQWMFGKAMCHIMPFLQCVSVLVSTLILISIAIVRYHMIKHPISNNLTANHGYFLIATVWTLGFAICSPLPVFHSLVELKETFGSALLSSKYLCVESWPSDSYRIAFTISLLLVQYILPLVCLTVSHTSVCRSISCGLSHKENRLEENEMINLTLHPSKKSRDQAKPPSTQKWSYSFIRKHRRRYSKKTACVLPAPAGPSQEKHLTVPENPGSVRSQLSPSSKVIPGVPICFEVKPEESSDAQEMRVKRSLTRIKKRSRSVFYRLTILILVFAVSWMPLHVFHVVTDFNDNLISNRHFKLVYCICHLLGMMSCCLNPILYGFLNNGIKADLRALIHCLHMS
Test: Radioligand competition binding
Conditions: membranes of HEK293 cells expressing mNPY5; 100 pM [125I]labeled peptide YY; 1 h at 22° C.; read-out: NPY5-R (mouse) IC50
Excerpt: The full-length cDNA encoding the mouse NPY5 (mNPY5) receptor was amplified from mouse brain cDNA using specific primers, designed based on the published sequence, and Pfu DNA-Polymerase. The amplification product was subcloned into the mammalian expression vector pcDNA3 using Eco RI and XhoI restriction sites. Positive clones were sequenced and one clone, encoding the published sequence was selected for generation of stable cell clones.
Human embryonic kidney 293 (HEK293) cells were transfected with 10 μg mNPY5 DNA using the lipofectamine reagent. Two days after transfection, geneticin selection (1 mg/ml) was initiated and several stable clones were isolated. One clone was further used for pharmacological characterization.
Human embryonic kidney 293 cells (HEK293), expressing recombinant mouse NPY5-receptor (mNPY5) were broken by three freeze/thawing cycles in hypotonic Tris buffer (5 mM, pH 7.4, 1 mM MgCl2), homogenized and centrifuged at 72,000×g for 15 min. The pellet was washed twice with 75 mM Tris buffer, pH 7.4, containing 25 mM MgCl2 and 250 mM sucrose, 0.1 mM phenylmethylsulfonylfluoride and 0.1 mM 1,10-pheneanthrolin, resuspended in the same buffer and stored in aliquots at −80° C. Protein was determined according to the method of Lowry using bovine serum albumine (BSA) as a standard. […]

Structure (SMILES) | IC50
Cc1nc(N2CCCC2)c2ccc(NCC(C)C)cc2n1 [Compound 24, isobutyl-(2-methyl-4-pyrrolidin-1-yl-quinazolin-7-yl)-amine] | 3 nM
Cc1nc(N2CCCC2)c2ccc(OCc3ccc(C#N)cc3)cc2n1 [Compound 3, 4-(2-methyl-4-pyrrolidin-1-yl-quinazolin-7-yloxymethyl)-benzonitrile] | 9 nM
